Earlier results in paper PMC8172013, “Carboxylesterase Notum Is a Druggable Target to Modulate Wnt Signaling” (Journal of Medicinal Chemistry, 2021).
Where two headings read alike, the source gives them in different places.

Assays:
Notum [1] = molecular target: T1, Notum (Homo sapiens, UniProt Q6P988); conditions: OPTS assay
T1 sequence (Q6P988 20-496): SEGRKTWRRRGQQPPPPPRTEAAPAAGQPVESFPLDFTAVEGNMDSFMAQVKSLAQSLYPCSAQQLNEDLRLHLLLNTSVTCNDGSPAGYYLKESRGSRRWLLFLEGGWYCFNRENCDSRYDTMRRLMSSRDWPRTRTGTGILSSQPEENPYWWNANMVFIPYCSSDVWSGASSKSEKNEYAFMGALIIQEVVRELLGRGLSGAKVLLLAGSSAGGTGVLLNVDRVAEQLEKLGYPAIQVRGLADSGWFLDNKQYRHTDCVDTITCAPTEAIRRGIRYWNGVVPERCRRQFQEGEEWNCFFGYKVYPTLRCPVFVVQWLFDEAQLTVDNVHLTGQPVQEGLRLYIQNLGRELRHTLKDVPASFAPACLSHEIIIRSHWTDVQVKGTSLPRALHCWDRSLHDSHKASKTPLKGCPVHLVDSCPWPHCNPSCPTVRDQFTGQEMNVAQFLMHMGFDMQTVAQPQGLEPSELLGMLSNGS

Notum [2] = molecular target: T1, Notum; conditions: TCF/LEF assay
[3] = mouse, 10 mg/kg po
Notum [4] = molecular target: T1, Notum
[5] = system: midshaft femur cortical thickness; conditions: mice, 3, 10, 30 mg/kg po daily, 25 days
bone formation = system: bone formation; set-up: method as in PMID 19072540, PMID 19932972; conditions: ex vivo model of bone formation

## O=c1[nH]nc(C2CCN(c3ccc(Cl)c(C(F)(F)F)c3)C2)o1 (centres unmarked) [Compound 63]
Notum [1]
  IC50: 4200 nM

## Cc1sc2ncnc(SCC(=O)O)c2c1Cl [Compound 37]
Notum [2]
  EC50: ~100 nM

## CCCc1sc2ncnc(SCC(=O)O)c2c1Cl [Compound 38]
Notum [2]
  EC50: ~100 nM

## Cc1c(Cl)sc2ncnc(SCC(=O)N3CC(=O)N(C)C3)c12 [Compound 40]
[3]
  plasma exposure: low plasma exposure
Notum [1]
  IC50: 2.4 nM

## C#CCN1CCN(C(=O)ON2C(=O)C3CN(Cc4ccc(Cl)cc4)CCN3C2=O)c2ccccc21 (centres unmarked) [ABC99yne]
Notum [4]; stated in words
  IC50: sub-micromolar

## O=C(C1CCN(c2ccc(Cl)c(C(F)(F)F)c2)C1)N1CC(F)(F)C1 (centres unmarked) [Compound 62]
Notum [1]
  IC50: 260 nM

## Cc1cc(C(=O)O)c(C)n1-c1cccc(C(C)C)c1F [Compound 60]
Notum [1]
  IC50: 150 nM

## Cc1csc2c(SCC(=O)O)ncnc12 [Compound 36]
Notum [1]
  IC50: 190 nM

## Cc1cc(C(=O)O)c(C)n1C1CC1 [Compound 58]
Notum [1]
  IC50: 6300 nM

## O=C(c1ccc(Cl)cc1)N1CCN2C(=O)N(OC(=O)N3CCOc4ccccc43)C(=O)C2C1 (centres unmarked) [ABC101]
Notum [2]
  EC50: > 5000 nM
Notum [4]; competitive gel-based ABPP, read-out: Notum IC50
  IC50: > 10000 nM

## O=C(O)CSc1ncnc2c(C3CC3)c(Cl)sc12 [Compound 26]
[5]
  midshaft femur cortical thickness: increases in midshaft femur cortical thickness at all doses tested

## CC(C)(C)NC(=O)N1CCC[C@H]1C(=O)N1CCC(NS(=O)(=O)c2ccc(S(=O)(=O)c3ccccc3)cc2C(F)(F)F)CC1 [WAY-362692]
Bone formation
  increase in total bone area: 75%
